Key:
[1] = biological target: T1, G protein-coupled receptor 88 (Homo sapiens, UniProt Q9GZN0); assay: Agonist activity at GPR88 (unknown origin) transfected in forskolin-stimulated HEK cells assessed as inhibition of cAMP production after 30 mins by HTRF method relative to control; type: functional, cell-based, HEK293
[2] = Plasma protein binding in rat by equilibrium dialysis method; type: ADME, cell-free; details: read-out: PPB (converted)
[3] = Plasma concentration in mouse at 1 mg/kg, iv after 30 mins; type: ADME, organism-based; parameters: dose 1 mg/kg, route intravenous
[4] = Half life in mouse at 1 mg/kg, iv; type: ADME, organism-based; parameters: dose 1 mg/kg, route intravenous; details: in vivo
[5] = Ratio of drug level in brain to plasma in mouse at 1 mg/kg, iv after 30 mins; type: ADME, organism-based; parameters: dose 1 mg/kg, route intravenous; details: brain and plasma, read-out: BPR
[6] = Clearance in mouse at 1 mg/kg, iv; type: ADME, organism-based; parameters: dose 1 mg/kg, route intravenous; details: in vivo
[7] = biological target: T1, G protein-coupled receptor 88; assay: Agonist activity at GPR88 (unknown origin) transfected in forskolin-stimulated HEK cells assessed as [35S]GTPgammaS binding after 60 mins by trilux scintillation counting analysis relative to control; type: functional, cell-based, HEK293
[8] = Plasma protein binding in mouse by equilibrium dialysis method; type: ADME, cell-free; details: read-out: PPB (converted)
[9] = Drug uptake in mouse brain at 1 mg/kg, iv after 30 mins; type: ADME, organism-based; parameters: dose 1 mg/kg, route intravenous; details: read-out: Drug uptake
[10] = Volume of distribution at steady state in mouse at 1 mg/kg, iv; type: ADME, organism-based; parameters: dose 1 mg/kg, route intravenous; details: in vivo, read-out: Vdss
[11] = Drug uptake in rat CSF at 10 mg/kg, ip after 30 mins; type: ADME, organism-based, Cerebrospinal fluid; parameters: dose 10 mg/kg, route intraperitoneal; details: read-out: Drug uptake
[12] = Clearance in mouse at 10 mg/kg, ip; type: ADME, organism-based; parameters: dose 10 mg/kg, route intraperitoneal; details: in vivo
[13] = Drug uptake in rat brain at 10 mg/kg, ip after 30 mins; type: ADME, organism-based; parameters: dose 10 mg/kg, route intraperitoneal; details: read-out: Drug uptake
[14] = Plasma concentration in rat at 10 mg/kg, ip after 30 mins; type: ADME, organism-based; parameters: dose 10 mg/kg, route intraperitoneal
[15] = Drug uptake in rat lung at 10 mg/kg, ip after 30 mins; type: ADME, organism-based; parameters: dose 10 mg/kg, route intraperitoneal; details: read-out: Drug uptake
[16] = Protein binding in rat brain by equilibrium dialysis method; type: ADME, tissue-based; details: read-out: PB (converted)
[17] = Plasma concentration in rat at 30 mg/kg, ip after 30 mins; type: ADME, organism-based; parameters: dose 30 mg/kg, route intraperitoneal
[18] = Drug uptake in rat brain at 30 mg/kg, ip after 30 mins; type: ADME, organism-based; parameters: dose 30 mg/kg, route intraperitoneal; details: read-out: Drug uptake
[19] = Drug uptake in rat CSF at 30 mg/kg, ip after 30 mins; type: ADME, organism-based, Cerebrospinal fluid; parameters: dose 30 mg/kg, route intraperitoneal; details: read-out: Drug uptake
[20] = Drug uptake in rat lung at 30 mg/kg, ip after 30 mins; type: ADME, organism-based; parameters: dose 30 mg/kg, route intraperitoneal; details: read-out: Drug uptake

T1 sequence (Q9GZN0 whole entry): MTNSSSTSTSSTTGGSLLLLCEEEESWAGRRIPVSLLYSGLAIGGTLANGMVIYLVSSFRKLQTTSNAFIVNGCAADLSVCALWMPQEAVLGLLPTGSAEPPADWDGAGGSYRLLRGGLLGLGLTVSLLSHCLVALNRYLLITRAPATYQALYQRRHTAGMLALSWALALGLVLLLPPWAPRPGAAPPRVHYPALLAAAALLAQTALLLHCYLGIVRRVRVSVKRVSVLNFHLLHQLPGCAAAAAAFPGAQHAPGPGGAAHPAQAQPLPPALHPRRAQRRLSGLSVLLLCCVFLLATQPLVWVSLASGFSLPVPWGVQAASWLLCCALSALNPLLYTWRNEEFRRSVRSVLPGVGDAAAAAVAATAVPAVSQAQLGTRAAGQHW

## CC[C@H](C)COc1ccc([C@H](CO)NC(=O)[C@@H](C)c2ccccc2)c(OC)c1
[1]
  EC50: 190 nM

## Cc1ccc(-c2ccc([C@H](CO)NC(=O)[C@H]3C[C@@H]3c3cccs3)cc2)cc1
[2]
  fraction unbound: 0.025
[3]
  concentration at 0.5 h: 290 nM
[4]
  half-life: 36 min
[5]
  Kp at 0.5 h: 2
[6]
  clearance: 47 mL/min/kg
[7]
  EC50: 240 nM
[7]; HEK293
  %max: 90%
[8]
  fraction unbound: 0.036
[1]
  EC50: 93 nM
[1]; HEK293
  %max: 90%
[9]
  concentration at 0.5 h: 695 nM
[10]
  Vd: 2.17 L/kg

## C[C@H](C(=O)N[C@@H](CO)c1ccc(OCC2CCO2)cc1)c1ccccc1 (stereo partly drawn)
[1]
  EC50: > 10000 nM

## CCCC(C)COc1ccc([C@H](CO)NC(=O)[C@@H](NC)c2ccccc2)cc1 (mixture of isomers)
[1]
  EC50: 860 nM

## CO[C@@H](C)COc1ccc([C@H](CO)NC(=O)[C@@H](C)c2ccccc2)cc1
[1]
  EC50: > 10000 nM

## CC[C@H](C)COc1ccc([C@H](CN)NC(=O)[C@@H](C)c2ccccc2)cc1
[11]
  concentration at 0.5 h: 1.1 nM
[12]
  CL/F: 66 mL/min/kg
[13]
  concentration at 0.5 h: 340 nM
[14]
  concentration at 0.5 h: 860 nM
[1]
  EC50: > 10000 nM
[15]
  concentration at 0.5 h: 59500 nM
[16]
  fraction unbound: 0.09

## CCCC(C)COc1ccc([C@H](CO)NC(=O)N(CC)Cc2ccccc2)cc1 (mixture of isomers)
[1]
  EC50: 1500 nM

## CC[C@H](C)COc1ccc([C@H](CO)NC(=O)[C@@H](C)c2ccccc2)c(C)n1
[1]
  EC50: 260 nM

## CCCC(C)COc1ccc([C@H](CN2CCCC2)NC(=O)[C@@H](C)c2ccccc2)cc1 (mixture of isomers)
[1]
  EC50: 570 nM

## CC[C@H](C)COc1ccc([C@H](CO)NC(=O)[C@@H](C)c2ccccc2)c(C)c1
[1]
  EC50: 160 nM

## CCCC(C)COc1ccc([C@H](CO)NC(=O)[C@H]2C[C@@H]2c2ccccc2)cc1 (mixture of isomers)
[1]
  EC50: 730 nM

## O=C(N[C@@H](CO)c1ccc2ccccc2c1)[C@@H]1C[C@@H]1c1ccccc1
[1]
  EC50: > 81000 nM

## CCCC(C)COc1ccc([C@H](CN)NC(=O)[C@@H](C)c2ccccc2)cc1 (mixture of isomers)
[1]
  EC50: 110 nM

## CCCC(C)COc1ccc([C@H](CN2CCOCC2)NC(=O)[C@@H](C)c2ccccc2)cc1 (mixture of isomers)
[1]
  EC50: 91 nM

## CCCC(C)COc1ccc([C@H](CN(C)C)NC(=O)[C@@H](C)c2ccccc2)cc1 (mixture of isomers)
[1]
  EC50: 29 nM

## CC(C)COc1ccc([C@H](CO)NC(=O)[C@H]2C[C@@H]2c2cccs2)cc1
[11]
  concentration at 0.5 h: 24 nM
[12]
  CL/F: 176 mL/min/kg
[13]
  concentration at 0.5 h: 6850 nM
[14]
  concentration at 0.5 h: 3240 nM
[1]
  EC50: 690 nM
[15]
  concentration at 0.5 h: 10500 nM
[16]
  fraction unbound: 0.05

## COc1ccc([C@H](CO)NC(=O)[C@@H](C)c2ccccc2)cc1
[11]
  concentration at 0.5 h: 335 nM
[13]
  concentration at 0.5 h: 450 nM
[14]
  concentration at 0.5 h: 1240 nM
[1]
  EC50: 410 nM
[15]
  concentration at 0.5 h: 970 nM
[16]
  fraction unbound: 0.23

## O=C(N[C@@H](CO)c1ccc2ccccc2c1)[C@H]1C[C@H]1c1ccccc1
[1]
  EC50: > 110000 nM

## CC[C@H](C)COc1ccc([C@H](CO)NC(=O)[C@H]2C[C@@H]2c2cccs2)cc1
[11]
  concentration at 0.5 h: 5.6 nM
[17]
  concentration at 0.5 h: 5270 nM
[12]
  CL/F: 144 mL/min/kg
[13]
  concentration at 0.5 h: 2510 nM
[14]
  concentration at 0.5 h: 2210 nM
[1]
  EC50: > 10000 nM
[18]
  concentration at 0.5 h: 5540 nM
[19]
  concentration at 0.5 h: 5.7 nM
[20]
  concentration at 0.5 h: 11500 nM
[16]
  fraction unbound: 0.06

## O=C(N[C@@H](CO)c1ccc2ccccc2c1)[C@H]1C[C@@H]1c1ccccc1
[1]
  EC50: 2500 nM

## CCCC(C)COc1ccc([C@H](CO)NC(=O)Cc2ccccc2)cc1 (mixture of isomers)
[1]
  EC50: > 10000 nM

## CC[C@H](C)COc1ccc([C@H](CO)NC(=O)[C@@H](C)c2ccccc2)cc1
[1]
  EC50: 190 nM

## CCCC(C)COc1ccc([C@H](CO)NC(=O)c2ccccc2)cc1 (mixture of isomers)
[1]
  EC50: 170 nM

## O=C(NC(CO)c1ccc2ccccc2c1)[C@@H]1C[C@H]1c1ccccc1 (mixture of isomers)
[1]
  EC50: 6000 nM

## CCCC(C)COc1ccc([C@H](CO)NC(=O)C(CO)c2ccccc2)cc1 (mixture of isomers)
[1]
  EC50: 810 nM

## COCC(C)Oc1ccc([C@H](CO)NC(=O)[C@@H](C)c2ccccc2)cc1 (stereo partly drawn)
[1]
  EC50: > 10000 nM

## CC[C@H](C)COc1ccc([C@H](CO)NC(=O)[C@@H](C)c2ccccc2)c(F)c1
[1]
  EC50: 460 nM

## CCCC(C)COc1ccc([C@H](CN2CCN(C)CC2)NC(=O)[C@@H](C)c2ccccc2)cc1 (mixture of isomers)
[1]
  EC50: 90 nM

## CC[C@H](C)COc1cc(C)c([C@H](CO)NC(=O)[C@@H](C)c2ccccc2)c(C)c1
[1]
  EC50: 170 nM

## O=C(N[C@@H](CO)c1ccc2ccccc2c1)[C@@H]1C[C@H]1c1ccccc1
[1]
  EC50: > 270000 nM

## CC(C)COc1ccc([C@H](CO)NC(=O)[C@@H](C)c2ccccc2)cc1
[1]
  EC50: 500 nM
